Laboratory results published in patent EP3002287B1, “Thiochromeno[2,3-c]quinolin-12-one derivatives and their use as topoisomerase inhibitors” (National Defense Medical Center, priority 2014, dated 2016).

What was measured:
MDA-MB-231/ATCC = assay: NCI in vitro 60-cell drug screen (SRB assay); type: cell-based; details: MDA-MB-231/ATCC (Breast cancer); 10^-5 molar concentration; 48 hours
KM12 = assay: NCI in vitro 60-cell drug screen (SRB assay); type: cell-based; details: KM12 (Colon cancer); 10^-5 molar concentration; 48 hours
60 cell lines = assay: NCI in vitro 60-cell drug screen (SRB assay), whole panel statistics; details: mean over the cell panel; 10^-5 molar concentration; 48 hours
HT29 = assay: NCI in vitro 60-cell drug screen (SRB assay); type: cell-based; details: HT29 (Colon cancer); 10^-5 molar concentration; 48 hours
HS 578T = assay: NCI in vitro 60-cell drug screen (SRB assay); type: cell-based; details: HS 578T (Breast cancer); 10^-5 molar concentration; 48 hours
TK-10 = assay: NCI in vitro 60-cell drug screen (SRB assay); type: cell-based; details: TK-10 (Renal cancer); 10^-5 molar concentration; 48 hours
SNB-75 = assay: NCI in vitro 60-cell drug screen (SRB assay); type: cell-based; details: SNB-75 (CNS cancer); 10^-5 molar concentration; 48 hours
LOX IMVI = assay: NCI in vitro 60-cell drug screen (SRB assay); type: cell-based; details: LOX IMVI (Melanoma); 10^-5 molar concentration; 48 hours
NCI-H322M = assay: NCI in vitro 60-cell drug screen (SRB assay); type: cell-based; details: NCI-H322M (Non-small cell lung cancer); 10^-5 molar concentration; 48 hours
HOP-62 = assay: NCI in vitro 60-cell drug screen (SRB assay); type: cell-based; details: HOP-62 (Non-small cell lung cancer); 10^-5 molar concentration; 48 hours
PC-3 [1] = assay: NCI in vitro 60-cell drug screen (SRB assay); type: cell-based; details: PC-3 (Prostate cancer); 10^-5 molar concentration; 48 hours
MDA-MB-486 = assay: NCI in vitro 60-cell drug screen (SRB assay); type: cell-based; details: MDA-MB-486 (Breast cancer); 10^-5 molar concentration; 48 hours
HCC-2998 = assay: NCI in vitro 60-cell drug screen (SRB assay); type: cell-based; details: HCC-2998 (Colon cancer); 10^-5 molar concentration; 48 hours
OVCAR-8 = assay: NCI in vitro 60-cell drug screen (SRB assay); type: cell-based; details: OVCAR-8 (Ovarian cancer); 10^-5 molar concentration; 48 hours
HOP-92 = assay: NCI in vitro 60-cell drug screen (SRB assay); type: cell-based; details: HOP-92 (Non-small cell lung cancer); 10^-5 molar concentration; 48 hours
M14 = assay: NCI in vitro 60-cell drug screen (SRB assay); type: cell-based; details: M14 (Melanoma); 10^-5 molar concentration; 48 hours
RPMI-8226 = assay: NCI in vitro 60-cell drug screen (SRB assay); type: cell-based; details: RPMI-8226 (Leukemia); 10^-5 molar concentration; 48 hours
SF-295 = assay: NCI in vitro 60-cell drug screen (SRB assay); type: cell-based; details: SF-295 (CNS cancer); 10^-5 molar concentration; 48 hours
SN12C = assay: NCI in vitro 60-cell drug screen (SRB assay); type: cell-based; details: SN12C (Renal cancer); 10^-5 molar concentration; 48 hours
SNB-19 = assay: NCI in vitro 60-cell drug screen (SRB assay); type: cell-based; details: SNB-19 (CNS cancer); 10^-5 molar concentration; 48 hours
UACC-257 = assay: NCI in vitro 60-cell drug screen (SRB assay); type: cell-based; details: UACC-257 (Melanoma); 10^-5 molar concentration; 48 hours
SK-MEL-28 = assay: NCI in vitro 60-cell drug screen (SRB assay); type: cell-based; details: SK-MEL-28 (Melanoma); 10^-5 molar concentration; 48 hours
SR = assay: NCI in vitro 60-cell drug screen (SRB assay); type: cell-based; details: SR (Leukemia); 10^-5 molar concentration; 48 hours
CAKI-1 = assay: NCI in vitro 60-cell drug screen (SRB assay); type: cell-based; details: CAKI-1 (Renal cancer); 10^-5 molar concentration; 48 hours
PC-3 [2] = assay: MTT assay for cell cytotoxicity; type: cell-based, human; details: Homo sapiens, 72 h, at least three independent experiments, read-out: MTT assay (IC50 ± SD) PC-3
DU-145 = assay: MTT assay for cell cytotoxicity; type: cell-based, human; details: Homo sapiens, 72 h, at least three independent experiments, read-out: MTT assay (IC50 ± SD) DU-145
Summary of the method: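 Seeded cells pre-incubated 24 h, then treated 72 h with 0.15–15 µM compound in RPMI-1640/5% FBS at 37 °C. MTT (1 mg/mL) added for 4 h, formazan dissolved in DMSO, absorbance at 560 nm; IC50 from mean of ≥3 independent experiments.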

MALME-3M = assay: NCI in vitro 60-cell drug screen (SRB assay); type: cell-based; details: MALME-3M (Melanoma); 10^-5 molar concentration; 48 hours
UO-31 = assay: NCI in vitro 60-cell drug screen (SRB assay); type: cell-based; details: UO-31 (Renal cancer); 10^-5 molar concentration; 48 hours

O=C(O)c1c(Sc2ccc(Cl)cc2)c(O)nc2ccccc12 [Compound 2, 3-((4-Chlorophenyl)thio)-2-hydroxyquinoline-4-carboxylic acid]
Growth percent (MDA-MB-231/ATCC): 95.70% | Growth percent (KM12): 112.61% | Growth percent, Mean (60 cell lines): 102.11% | Growth percent (HT29): 101.41% | Growth percent (HS 578T): 88.33% | Growth percent (TK-10): 118.09% | Growth percent (SNB-75): 82.18% | Growth percent (LOX IMVI): 90.46% | Growth percent (NCI-H322M): 101.10% | Growth percent (HOP-62): 116.47% | Growth percent (PC-3 [1]): 93.23% | Growth percent (MDA-MB-486): 104.57% | Growth percent (HCC-2998): 100.97% | Growth percent (OVCAR-8): 114.68% | Growth percent (HOP-92): 72.97% | Growth percent (M14): 106.90% | Growth percent (RPMI-8226): 98.10% | Growth percent (SF-295): 98.99% | Growth percent (SN12C): 95.83% | Growth percent (SNB-19): 97.17% | Growth percent (UACC-257): 121.83% | Growth percent (SK-MEL-28): 98.95% | Growth percent (SR): 106.33% | Growth percent (CAKI-1): 76.26% | IC50 (PC-3 [2]): > 15 µM | IC50 (DU-145): > 15 µM | Growth percent (MALME-3M): 107.05% | Growth percent (UO-31): 68.91%

O=c1c2cc(Cl)ccc2sc2c(O)nc3ccccc3c12 [Compound 4, 10-Chloro-6-hydroxy-12H-thiochromeno[2,3-c]quinolin-12-one]
Growth percent (MDA-MB-231/ATCC): 81.80% | Growth percent (KM12): 102.45% | Growth percent, Mean (60 cell lines): 97.17% | Growth percent (HT29): 96.78% | Growth percent (HS 578T): 113.28% | Growth percent (TK-10): 113.26% | Growth percent (SNB-75): 66.63% | Growth percent (LOX IMVI): 92.07% | Growth percent (NCI-H322M): 90.87% | Growth percent (HOP-62): 90.80% | Growth percent (PC-3 [1]): 91.90% | Growth percent (MDA-MB-486): 100.33% | Growth percent (HCC-2998): 101.48% | Growth percent (OVCAR-8): 100.55% | Growth percent (HOP-92): 93.13% | Growth percent (M14): 94.76% | Growth percent (RPMI-8226): 100.99% | Growth percent (SF-295): 99.93% | Growth percent (SN12C): 101.14% | Growth percent (SNB-19): 101.37% | Growth percent (UACC-257): 108.36% | Growth percent (SK-MEL-28): 116.59% | Growth percent (SR): 96.00% | IC50 (PC-3 [2]): 10.1 ± 1.81 µM | IC50 (DU-145): > 15 µM | Growth percent (MALME-3M): 93.26% | Growth percent (UO-31): 76.44%

COc1nc2ccccc2c2c(=O)c3cc(Cl)ccc3sc12 [Compound 5, 10-Chloro-6-methoxy-12H-thiochromeno[2,3-c]quinolin-12-one]
Growth percent (MDA-MB-231/ATCC): 78.12% | Growth percent (KM12): 98.03% | Growth percent, Mean (60 cell lines): 92.10% | Growth percent (HT29): 102.69% | Growth percent (HS 578T): 66.51% | Growth percent (TK-10): 113.30% | Growth percent (SNB-75): 52.28% | Growth percent (LOX IMVI): 91.21% | Growth percent (NCI-H322M): 90.77% | Growth percent (HOP-62): 69.64% | Growth percent (PC-3 [1]): 92.46% | Growth percent (MDA-MB-486): 103.54% | Growth percent (HCC-2998): 104.67% | Growth percent (OVCAR-8): 91.82% | Growth percent (HOP-92): 80.11% | Growth percent (M14): 88.40% | Growth percent (RPMI-8226): 102.86% | Growth percent (SF-295): 86.35% | Growth percent (SN12C): 98.74% | Growth percent (SNB-19): 89.36% | Growth percent (UACC-257): 108.09% | Growth percent (SK-MEL-28): 112.31% | Growth percent (SR): 88.18% | IC50 (PC-3 [2]): 3.89 ± 0.54 µM | IC50 (DU-145): 10.8 ± 6.55 µM | Growth percent (MALME-3M): 94.19% | Growth percent (UO-31): 74.69%

CN(C)c1nc2ccccc2c2c(=O)c3cc(Cl)ccc3sc12 [Compound 6, 10-Chloro-6-dimethylamino-12H-thiochromeno[2,3-c]quinolin-12-one]
Growth percent (MDA-MB-231/ATCC): 71.03% | Growth percent (KM12): 96.40% | Growth percent, Mean (60 cell lines): 80.59% | Growth percent (HT29): 87.73% | Growth percent (HS 578T): 60.38% | Growth percent (TK-10): 64.75% | Growth percent (SNB-75): 15.29% | Growth percent (LOX IMVI): 86.53% | Growth percent (NCI-H322M): 83.74% | Growth percent (HOP-62): 43.62% | Growth percent (PC-3 [1]): 81.25% | Growth percent (MDA-MB-486): 29.91% | Growth percent (HCC-2998): 97.20% | Growth percent (OVCAR-8): 68.53% | Growth percent (HOP-92): 58.65% | Growth percent (M14): 94.36% | Growth percent (RPMI-8226): 98.20% | Growth percent (SF-295): 48.82% | Growth percent (SN12C): 99.49% | Growth percent (SNB-19): 76.46% | Growth percent (UACC-257): 109.22% | Growth percent (SK-MEL-28): 96.60% | Growth percent (SR): 95.68% | IC50 (PC-3 [2]): > 15 µM | IC50 (DU-145): > 15 µM | Growth percent (MALME-3M): 89.70% | Growth percent (UO-31): 73.81%
